This passage reports survival and MST results from ChEMBL document CHEMBL1126490, “An unusual oxetane nucleoside as a potent antiviral agent” (1993).

Where “and” joins values, the source holds several entries; their conditions need not be identical. Equal entries are not always repeated.

What all share (type): functional
For assay [1], the system named is Mus musculus. Put plainly: Percent survival of mice against Japanese encephalitis virus after 5 mg/Kg peroral administration of the compound. As to conditions: po.
Assay [2] has as its system Mus musculus. Put plainly: Percent survival of mice against Japanese encephalitis virus after 10 mg/Kg peroral administration of compound. As to conditions: po.
Assay [3] is filed under the species Mus musculus. Put plainly: Mean survival time of mice against Japanese encephalitis virus was determined.
Assay [4] is filed under the species Mus musculus. Put plainly: Mean survival time of mice against forest virus was determined.
The subject of assay [5] is Mus musculus. Put plainly: Percent survival of mice against forest virus after 5 mg/Kg peroral administration of compound. Particulars: po.
Assay [6] has as its system Mus musculus. Put plainly: Percent survival of mice against forest virus after 10 mg/Kg peroral administration of compound. As to conditions: po.

In the case of `Nc1ncnc2c1ncn2C1OC2COC2C1O` (stereo unspecified), the survival at 5 mg/kg in the assay with Mus musculus [1] and with Mus musculus [5] was 37% throughout. Moreover, the survival at 10 mg/kg in the assay on Mus musculus [2] was determined as 67%; with Mus musculus [6] it was 50%. In addition, the MST in the assay filed under Mus musculus [3] is 10.7 days and 15.5 days; in the assay filed under Mus musculus [4] it was 11.6 days and 11.8 days.
